Data: Sander's compilation of Henry's law constants (doi:10.1021/es00081a021)

Assay: Henry solubility constant Hcp at 298.15 K (mol/(m3 Pa))
Conditions: reference: Brunner et al. (1990)

Compound | Henry solubility constant Hcp
Clc1cccc(-c2c(Cl)c(Cl)c(Cl)c(Cl)c2Cl)c1Cl [2,2',3,3',4,5,6-heptachlorobiphenyl] | 0.7
Clc1ccc(-c2c(Cl)c(Cl)cc(Cl)c2Cl)c(Cl)c1 [2,2',3,4',5,6-hexachlorobiphenyl] | 0.19
Clc1ccc(Cl)c(-c2ccccc2)c1Cl [2,3,6-trichlorobiphenyl] | 0.045
Clc1cc(Cl)c(Cl)c(-c2c(Cl)ccc(Cl)c2Cl)c1 [2,2',3,3',5,6'-hexachlorobiphenyl] | 0.18
Clc1cccc(Cl)c1-c1c(Cl)cccc1Cl [2,2',6,6'-tetrachlorobiphenyl] | 0.049
Clc1cc(Cl)c(-c2c(Cl)cccc2Cl)cc1Cl [2,2',4,5,6'-pentachlorobiphenyl] | 0.11
Clc1cc(Cl)c(Cl)c(-c2cc(Cl)c(Cl)cc2Cl)c1 [2,2',3,4',5,5'-hexachlorobiphenyl] | 0.39
Clc1ccc(-c2cc(Cl)c(Cl)cc2Cl)c(Cl)c1 [2,2',4,4',5-pentachlorobiphenyl] | 0.13
Clc1ccc(-c2ccccc2)cc1Cl [3,4-dichlorobiphenyl] | 0.07
Clc1ccc(Cl)c(-c2ccccc2Cl)c1 [2,2',5-trichlorobiphenyl] | 0.039
Clc1cc(Cl)c(Cl)c(-c2c(Cl)c(Cl)cc(Cl)c2Cl)c1Cl [2,2',3,3',5,5',6,6'-octachlorobiphenyl] | 0.55
Clc1cc(-c2cc(Cl)c(Cl)c(Cl)c2Cl)c(Cl)c(Cl)c1Cl [2,2',3,3',4,4',5,5'-octachlorobiphenyl] | 0.99
Clc1cc(Cl)c(-c2c(Cl)c(Cl)cc(Cl)c2Cl)c(Cl)c1Cl [2,2',3,3',4,5',6,6'-octachlorobiphenyl] | 0.58
Clc1ccccc1-c1c(Cl)cccc1Cl [2,2',6-trichlorobiphenyl] | 0.043
Clc1cc(-c2c(Cl)cc(Cl)c(Cl)c2Cl)c(Cl)c(Cl)c1Cl [2,2',3,3',4,4',5,6'-octachlorobiphenyl] | 0.99
Clc1cccc(-c2cc(Cl)cc(Cl)c2)c1 [3,3',5-trichlorobiphenyl] | 0.058
Clc1cccc(-c2ccccc2Cl)c1 [2,3'-dichlorobiphenyl] | 0.039
Clc1ccc(-c2ccc(Cl)c(Cl)c2)cc1 [3,4,4'-trichlorobiphenyl] | 0.099
Clc1cc(Cl)c(-c2ccccc2)c(Cl)c1Cl [2,3,4,6-tetrachlorobiphenyl] | 0.047

Compound | Henry solubility constant Hcp
Clc1cc(-c2c(Cl)c(Cl)cc(Cl)c2Cl)c(Cl)c(Cl)c1Cl [2,2',3,3',4,5,5',6'-octachlorobiphenyl] | 0.99
Clc1ccc(-c2ccc(Cl)c(Cl)c2Cl)c(Cl)c1 [2,2',3,4,4'-pentachlorobiphenyl] | 0.15
Clc1cccc(-c2cc(Cl)c(Cl)cc2Cl)c1 [2,3',4,5-tetrachlorobiphenyl] | 0.099
Clc1cc(Cl)c(-c2cc(Cl)c(Cl)cc2Cl)cc1Cl [2,2',4,4',5,5'-hexachlorobiphenyl] | 0.43
Clc1cccc(-c2c(Cl)c(Cl)c(Cl)c(Cl)c2Cl)c1 [2,3,3',4,5,6-hexachlorobiphenyl] | 0.49
Clc1ccc(Cl)c(-c2cc(Cl)ccc2Cl)c1 [2,2',5,5'-tetrachlorobiphenyl] | 0.049
Clc1cc(Cl)c(Cl)c(-c2ccc(Cl)c(Cl)c2Cl)c1 [2,2',3,3',4,5'-hexachlorobiphenyl] | 0.27
Clc1cc(Cl)c(-c2cccc(Cl)c2Cl)cc1Cl [2,2',3,4',5'-pentachlorobiphenyl] | 0.13
Clc1ccc(Cl)c(-c2cc(Cl)c(Cl)c(Cl)c2Cl)c1 [2,2',3,4,5,5'-hexachlorobiphenyl] | 0.43
Clc1ccc(-c2cc(Cl)ccc2Cl)cc1 [2,4',5-trichlorobiphenyl] | 0.052
Clc1cc(Cl)cc(-c2c(Cl)c(Cl)cc(Cl)c2Cl)c1 [2,3,3',5,5',6-hexachlorobiphenyl] | 0.34
Clc1cccc(-c2cc(Cl)c(Cl)c(Cl)c2Cl)c1Cl [2,2',3,3',4,5-hexachlorobiphenyl] | 0.34
Clc1cc(-c2c(Cl)ccc(Cl)c2Cl)c(Cl)c(Cl)c1Cl [2,2',3,3',4,5,6'-heptachlorobiphenyl] | 0.7
Clc1cc(Cl)cc(-c2cc(Cl)c(Cl)c(Cl)c2Cl)c1 [2,3,3',4,5,5'-hexachlorobiphenyl] | 0.49
Clc1cccc(-c2cccc(Cl)c2Cl)c1Cl [2,2',3,3'-tetrachlorobiphenyl] | 0.099
Clc1ccc(Cl)c(-c2c(Cl)c(Cl)cc(Cl)c2Cl)c1Cl [2,2',3,3',5,6,6'-heptachlorobiphenyl] | 0.41
Clc1ccc(Cl)c(-c2ccc(Cl)c(Cl)c2)c1 [2,3',4',5-tetrachlorobiphenyl] | 0.099
Clc1ccc(Cl)c(-c2c(Cl)ccc(Cl)c2Cl)c1Cl [2,2',3,3',6,6'-hexachlorobiphenyl] | 0.11
Clc1cc(Cl)c(-c2ccc(Cl)c(Cl)c2Cl)cc1Cl [2,2',3,4,4',5'-hexachlorobiphenyl] | 0.47
